Measurements reported in ChEMBL document CHEMBL1147328, “13C-NMR assignments and cytotoxicity assessment of zoanthoxanthin alkaloids from zoanthid corals” (J Nat Prod, 1993).
In brackets after ≈: the same amount, converted by molar mass.

Assays:
Format in all cases: functional, cell-based
HT-29 = test: Cytotoxicity against human HT-29 cells
HCT-8 = test: Cytotoxicity against human HCT8 cells
P388 = test: Cytotoxicity against mouse P388 cells
A549 = test: Cytotoxicity against human A549 cells

Work on `CNc1nc2c(C)ccc3nc(N(C)C)nc-3c2n1C` yielded an IC50 (HT-29) of 0.824 µg/mL (≈ 3.05 µM), an IC50 (HCT-8) of 1.61 µg/mL (≈ 5.96 µM) and an IC50 (P388) of 1.77 µg/mL (≈ 6.55 µM). It also gave an IC50 (A549) of 2.38 µg/mL (≈ 8.8 µM).
